# Data reported in patent US7902369B2, “Diaryl-substituted five-membered heterocycle derivative” (Banyu Pharmaceutical Co., Ltd., priority 2004, dated 2011).
# Legend:
# male ICR(CD-1) mouse = assay: Suppression of mouse spontaneous movement level increased by methamphetamine; assay type: in vivo; conditions: po, 1 h, 3 mg/kg orally 30 min before 2 mg/kg methamphetamine, movement level during 60 min
# Procedure: With the use of male ICR(CD-1) mouse (20-40 g), movement level was measured with the use of movement level-measuring device detecting animal migration by infrared radiation sensor (Neuroscience). Compounds or appropriate solvents were administered to mice, and after administrating normal saline solution or 2 mg/kg of methamphetamine 30 min later, the movement level during 60 min from after the administration was measured. By making the difference between the movement level of the methamphetamine-administered group and that of the solvents-administered group during measuring period as 100%, the movement level of test compound-administered group was shown by inhibition % for estimation.
# rats = assay: Suppression of the reduction of prepulse inhibition (PPI) by methamphetamine; assay type: in vivo; conditions: orally 30 min before 3 mg/kg methamphetamine; rat startle reaction, 120 dB pulse with prepulse
# Procedure: Systems tested for prepulse inhibition which can detect specifically antipsychotic effect were also investigated. By using startle reflex measuring device (San Diego Instruments) which can dectect movement of rats, startle reaction to 120 dB-sound stimulation (pulse stimulation) combined with 63, 66 and 72 dB-sound stimulation prior to pulse stimulation (prepulse) was measured in the presence of 60 dB-background sound. The compounds of the present invention or appropriate solvents were administered to rats, and normal saline solution or 3 mg/kg of methamphetamine was administered 30 min later, to measure startle reation. Startle reactions to pulse stimulation and to stimulation with prepulse were named A and B respectively, and the prepulse inhibition (herein referred to as PPI) level was calculated with the following formula. Calculating formula of PPI:PPI(%)=100×(A−B)/A
# In contrast to startle reaction toward pulse stimulation, in the presence of preminary prepulse of 72 dB, startle reaction decreased by about 50% (prepulse inhibition). When pre-treating with methamphemine, strate reaction decreased only by about 20%, and decrease of prepulse inhibition was observed. Moreover, by administrating orally the compounds having mGluR1 antagonist effect 30 min before methamphetamine administration to the present models, decrease of prepulse inhibition by methamphetamine had tendance to recover.
# [1] = target: T1, human metabotropic glutamate receptor 1a (mGluR1a) (Homo sapiens, UniProt Q13255); assay: mGluR1 inhibiting effect: intracellular calcium concentration (FLIPR) in mGluR1a-expressing CHO cells; assay type: cell-based; conditions: suppression of calcium increase by 10 μM glutamic acid, test compound added 5 min before agonist
# T1 construct: expressed in transfected cells
# T1 sequence (Q13255 19-1194): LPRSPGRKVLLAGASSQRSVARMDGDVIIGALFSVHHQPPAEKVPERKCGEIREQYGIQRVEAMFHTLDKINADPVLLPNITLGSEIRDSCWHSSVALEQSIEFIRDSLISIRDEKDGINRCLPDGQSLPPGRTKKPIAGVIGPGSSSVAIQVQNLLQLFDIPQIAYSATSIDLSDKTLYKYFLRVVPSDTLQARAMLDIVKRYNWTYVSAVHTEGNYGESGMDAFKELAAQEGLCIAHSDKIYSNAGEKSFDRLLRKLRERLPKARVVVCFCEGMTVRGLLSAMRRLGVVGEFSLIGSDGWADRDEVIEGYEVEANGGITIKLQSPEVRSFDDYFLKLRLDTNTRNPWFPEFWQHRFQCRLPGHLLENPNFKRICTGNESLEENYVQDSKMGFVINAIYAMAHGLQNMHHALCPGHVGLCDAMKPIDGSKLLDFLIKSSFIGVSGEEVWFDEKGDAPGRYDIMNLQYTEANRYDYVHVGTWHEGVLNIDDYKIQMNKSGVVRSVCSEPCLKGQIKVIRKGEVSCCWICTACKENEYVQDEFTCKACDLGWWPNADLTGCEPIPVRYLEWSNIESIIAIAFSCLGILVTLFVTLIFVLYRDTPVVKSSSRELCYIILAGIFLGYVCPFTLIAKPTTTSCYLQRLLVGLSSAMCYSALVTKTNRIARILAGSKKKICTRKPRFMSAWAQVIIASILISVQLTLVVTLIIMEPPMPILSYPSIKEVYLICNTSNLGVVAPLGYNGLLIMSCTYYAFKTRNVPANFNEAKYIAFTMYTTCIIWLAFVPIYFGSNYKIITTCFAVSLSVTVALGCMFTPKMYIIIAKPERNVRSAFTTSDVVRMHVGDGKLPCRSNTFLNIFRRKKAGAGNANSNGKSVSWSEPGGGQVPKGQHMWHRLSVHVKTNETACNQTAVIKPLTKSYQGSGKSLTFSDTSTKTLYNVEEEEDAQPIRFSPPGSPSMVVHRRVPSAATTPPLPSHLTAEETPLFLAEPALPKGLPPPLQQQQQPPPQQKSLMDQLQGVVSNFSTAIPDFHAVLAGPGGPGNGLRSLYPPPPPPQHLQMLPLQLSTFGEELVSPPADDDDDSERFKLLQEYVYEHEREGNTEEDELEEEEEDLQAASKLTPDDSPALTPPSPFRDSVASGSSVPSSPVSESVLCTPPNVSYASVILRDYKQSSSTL
# Procedure: MGlu1 inhibiting effect was measured by using the compound of the present invention.
# With the use of Lipofectamine (Gibco BRL), cDNA of human metabotropic glutamate receptor 1a (mGluR1a) were transfected to CHO cells, to obtain cells expressing mGluR1a in a stable manner. CHO cells which expressed mGluR1a were cultured in DMEM medium containing 10% dialysis fetal bovine serum, 1% proline, 100 units/ml of penicillin, 0.1 mg of streptomycin sulfate and […] glutamine.
# 4 μM of Fluo-3 was incubated to mGluR1a-expressing CHO cells plated with 50000 cells per 1 well of 96-well black plate (Packard, Viewplate) the day before the measurement, in a CO2 incubator for 1 hour. The cells were washed 4 times with HBSS solution containing 20 mM HEPES and 25 mM probenecid, and the intracellular calcium concentration was measured with the use of Fluorescence Imaging Plate Reader (FLIPR; Mollecular Device). The test compounds and glutamic acid were adjusted with HBSS solution containing 20 mM HEPES and 2.5 mM Probenecid. The test compounds were added 5 min before agonist stimulation, and 10 μM of glutamic acid was used as agonist.
# The calcium increased with 10 μM of glutamic acid was suppressed dose-dependently.
SMILES,inhibition in vivo at 3 mg/kg (male ICR(CD-1) mouse),Inhibition effect to PPI disorder (rats),IC50 [1]
"Cc1c(-c2ccc3c(c2)CN(CC(C)(C)O)C3=O)nnn1-c1ccc(F)cc1 [Example 181, 4-(2-(2-hydroxy-2-methyl-propyl)-1-oxo-isoindoline-5-yl)-1-(4-fluorophenyl)-5-methyl-1H-[1,2,3]triazole]",> 50%,yes,18 nM
Cc1c(-c2ccc3nc(CC(C)(C)O)ccc3c2)nnn1-c1ccc(F)cc1 [Example 227],> 50%,yes,2.4 nM
"Cc1c(-c2ccc3c(c2)CC2(CC2)C3=O)nnn1-c1cccnc1F [Example 34, 1-(2-fluoropyridine-3-yl)-5-methyl-4-(1-oxoindane-2-spiro-1′-cyclopropyl-5-yl)-1H-[1,2,3]triazole]",> 50%,yes,2.3 nM
"Cc1c(-c2ccc3c(c2)CN(CC(F)F)C3=O)nnn1-c1ccc(F)cc1 [Example 151, 4-(2-(2,2-difluoroethyl)-1-oxo-isoindoline-5-yl)-1-(4-fluorophenyl)-5-methyl-1H-[1,2,3]triazole]",> 50%,yes,2.5 nM
"Cc1c(-c2ccc3c(c2)CN(C2CC2)C3=O)nnn1-c1cccnc1F [Example 49, 4-(2-cyclopropyl-1-oxo-isoindoline-5-yl)-1-(2-fluoropyridine-3-yl)-5-methyl-1H-[1,2,3]triazole]",> 50%,yes,3.2 nM
"Cc1c(-c2ccc3c(c2)CN(C(C)C)C3=O)nnn1-c1ccc(F)cc1F [Example 119, 4-(2-isopropyl-1-oxo-isoindoline-5-yl)-1-(2,4-difluorophenyl)-5-methyl-1H-[1,2,3]triazole]",> 50%,yes,4.3 nM
"Cc1c(-c2ccc3c(c2)CN(C(C)C)C3=O)nnn1-c1cccnc1F [Example 36, 4-(2-isopropyl-1-oxo-isoindoline-5-yl)-1-(2-fluoropyridine-3-yl)-5-methyl-1H-[1,2,3]triazole]",> 50%,yes,6.5 nM
"CCCN1Cc2cc(-c3nnn(-c4cccnc4F)c3C)ccc2C1=O [Example 85, 1-(2-fluoropyridine-3-yl)-5-methyl-4-(2-propyl-1-oxo-isoindoline-5-yl)-1H-[1,2,3]triazole]",> 50%,yes,4.4 nM
"Cc1c(-c2ccc3c(c2)CN(C2CC2)C3=O)nnn1-c1ccccc1F [Example 87, 4-(2-cyclopropyl-1-oxo-isoindoline-5-yl)-1-(2-fluorobenzene-3-yl)-5-methyl-1H-[1,2,3]triazole]",> 50%,yes,4.3 nM
"Cc1c(-c2ccc3c(=O)n(CC(C)(C)O)ccc3c2)nnn1-c1ccc(F)cc1 [Example 204, 4-(2-(2-hydroxy-2-methyl-propyl)-1-oxo-isoquinoline-6-yl)-1-(4-fluorophenyl)-5-methyl-1H-[1,2,3]triazole]",> 50%,yes,3.4 nM
